According to patent US20110152093A1, “Herbicidal compositions comprising flufenacet” (Bayer CropScience AG, priority 2009, published 2011):

Experiments:
Format in all cases: in vivo
[1] = system: VIOAR (Viola arvensis); assay: Post-emergence (PO) action against weeds, greenhouse trial, test method 2; settings: PO application; g of AS/ha: (A) 240, (B) 1200, (C) 140, (A)+(B)+(C) 240 + 1200 + 140
Description: (§1) In the standard design of the test, seeds of various broad-leaved weed and weed grass biotypes (origins) were sown in a 8-13 cm diameter pot filled with natural soil of a standard field soil (loamy silt; non-sterile) and covered with a covering soil layer of about 1 cm. The pots were then cultivated in a greenhouse (12-16 h of light, temperature day 20-22° C., night 15-18° C.) until the time of application. The pots were treated on a laboratory track sprayer with spray liquors comprising the compositions according to the invention, mixtures of the prior art or components used individually. Application of the active compounds or active compound combinations formulated as WG, WP, EC or otherwise was carried out at the appropriate growth stages of the plants. The application rate for the spray application was 100-600 l of water/ha. After the treatment, the plants were returned to the greenhouses.
(§2) About 3 weeks after the application, the soil action or/and foliar action was assessed visually according to a scale of 0-100% in comparison to an untreated comparative group: 0%=no noticeable effect compared to the untreated comparative group; 100%=full effect compared to the untreated comparative group.
(§3) (notes: the term “seeds” also includes vegetative propagation forms such as, for example, rhizome pieces; abbreviations used: h light=hours of illumination, g of AS/ha=gram of active substance per hectare, l/ha=liter per hectare, S=sensitive, R=resistant) • 1. Pre-emergence action against weeds: seeds of various broad-leaved weed and weed grass biotypes (origins) were sown in a 8-13 cm diameter pot filled with natural soil of a standard field soil (loamy silt; non-sterile) and covered with a covering soil layer of about 1 cm. The pots were then cultivated in a greenhouse (12-16 h of light, temperature day 20-22° C., night 15-18° C.) until the time of application. The pots were treated at the BBCH stage 00-10 of the seeds/plants on a laboratory track sprayer with spray liquors comprising the compositions according to the invention, mixtures or components used individually, as WG, WP, EC or other formulations. The application rate for the spray application was 100-600 l of water/ha. After the treatment, the plants were returned to the greenhouses and, when required, treated with fertilizer and watered. • 2. Post-emergence action against weeds: seeds of various broad-leaved weed and weed grass biotypes (origins) were sown in a 8-13 cm diameter pot filled with natural soil of a standard field soil (loamy silt; non-sterile) and covered with a covering soil layer of about 1 cm. The pots were then cultivated in a greenhouse (12-16 h of light, temperature day 20-22° C., night 15-18° C.) until the time of application. The pots were treated at various BBCH stages between 11-25 of the seeds/plants, i.e. generally between two to three weeks after the start of the cultivation, on a laboratory track sprayer with spray liquors comprising the compositions according to the invention, mixtures or components used individually, as WG, WP, EC or other formulations. The application rate for the spray application was 100-600 l of water/ha. After the treatment, the plants were returned to the greenhouses and, when required, treated with fertilizer and watered. • 3. […]

[2] = system: POAAN (Poa annua); assay: as above; settings: PO application; g of AS/ha: (A) 240, (B) 1200, (C) 140, (A)+(B)+(C) 240 + 1200 + 140
Description: as §1, §2, §3

[3] = system: AVEFA (Avena fatua); assay: Pre-emergence (PE) action against weeds, greenhouse trial, test method 1; settings: PE application; g of AS/ha: (A) 90, (B) 1200, (C) 140, (A)+(B)+(C) 90 + 1200 + 140
Description: as §1
as §2, with “group. […]” for “group.”

[4] = system: MATCH (Matricaria chamomilla); assay: as above; settings: PE application; g of AS/ha: (A) 90, (B) 1200, (C) 140, (A)+(B)+(C) 90 + 1200 + 140
Description: as §1
as §2, with “group. […]” for “group.”

[5] = system: MATCH (Matricaria chamomilla); assay: Action under various soil conditions (soil types), test method 7; settings: g of AS/ha: (A) 90, (B) 1200, (C) 140, (A)+(B)+(C) 90 + 1200 + 140
Description: as §1, §2
(§4) (notes: the term “seeds” also includes vegetative propagation forms such as, for example, rhizome pieces; abbreviations used: h light=hours of illumination, g of AS/ha=gram of active substance per hectare, l/ha=liter per hectare, S=sensitive, R=resistant) • 1. Pre-emergence action against weeds: seeds of various broad-leaved weed and weed grass biotypes (origins) were sown in a 8-13 cm diameter pot filled with natural soil of a standard field soil (loamy silt; non-sterile) and covered with a covering soil layer of about 1 cm. The pots were then cultivated in a greenhouse (12-16 h of light, temperature day 20-22° C., night 15-18° C.) until the time of application. The pots were treated at the BBCH stage 00-10 of the seeds/plants on a laboratory track sprayer with spray liquors comprising the compositions according to the invention, mixtures or components used individually, as WG, WP, EC or other formulations. The application rate for the spray application was 100-600 l of water/ha. After the treatment, the plants were returned to the greenhouses and, when required, treated with fertilizer and watered. • 2. Post-emergence action against weeds: seeds of various broad-leaved weed and weed grass biotypes (origins) were sown in a 8-13 cm diameter pot filled with natural soil of a standard field soil (loamy silt; non-sterile) and covered with a covering soil layer of about 1 cm. The pots were then cultivated in a greenhouse (12-16 h of light, temperature day 20-22° C., night 15-18° C.) until the time of application. The pots were treated at various BBCH stages between 11-25 of the seeds/plants, i.e. generally between two to three weeks after the start of the cultivation, on a laboratory track sprayer with spray liquors comprising the compositions according to the invention, mixtures or components used individually, as WG, WP, EC or other formulations. The application rate for the spray application was 100-600 l of water/ha. After the treatment, the plants were returned to the greenhouses and, when required, treated with fertilizer and watered. • 3. Selective pre-emergence action: seeds of various crop species (origins) were sown in a 8-13 cm diameter pot filled with natural soil of a standard field soil (loamy silt; non-sterile) and covered with a covering soil layer of about 1 cm. The pots were then cultivated in a greenhouse (12-16 h of light, temperature day 20-22° C., night 15-18° C.) until the time of application. The pots were treated at the BBCH stage 00-10 of the seeds/plants on a laboratory track sprayer with spray liquors comprising the compositions according to the invention, mixtures or components used individually, as WG, WP, EC or other formulations. The application rate for the spray application was 100-600 l of water/ha. […]

[6] = system: STEME (Stellaria media); assay: as above; settings: g of AS/ha: (A) 90, (B) 1200, (C) 140, (A)+(B)+(C) 90 + 1200 + 140
Description: as §1, §2, §4

[7] = system: MATCH (Matricaria chamomilla); assay: PE action at different sowing depths, test method 9; settings: PE application, g of AS/ha: (A) 90, (B) 1200, (C) 140, (A)+(B)+(C) 90 + 1200 + 140
Description: as §1
as §2, with “group. […]” for “group.”

[8] = system: AVEFA (Avena fatua); assay: PE action at different soil pH values, test method 10; settings: PE application, g of AS/ha: (A) 90, (B) 1200, (C) 140, (A)+(B)+(C) 90 + 1200 + 140
Description: as §1, §2

[9] = system: LOLPE (Lolium perenne); assay: PE action under various irrigation conditions, test method 6; settings: PE application, g of AS/ha: (A) 90, (B) 1200, (C) 140, (A)+(B)+(C) 90 + 1200 + 140
Description: as §1, §2, §4

[10] = system: MATCH (Matricaria chamomilla); assay: as above; settings: PE application; irrigation from above; g of AS/ha: (A) 90, (B) 1200, (C) 140, (A)+(B)+(C) 90 + 1200 + 90
Description: as §1, §2, §4

With `CCC(CC)Nc1c([N+](=O)[O-])cc(C)c(C)c1[N+](=O)[O-]` [(B) pendimethalin, N-(1-ethylpropyl)-3,4-dimethyl-2,6-dinitrobenzenamine] the “activity VIOAR (visual, scale 0-100%)” value [1] was 30%, the “activity POAAN (visual, scale 0-100%)” value [2] was 0% and the “activity AVEFA” value [3] was 40%. The “activity MATCH” value [4] was 18%, the “activity MATCH IU soil” value ([5]; IU soil) was 10% and the “activity MATCH IU/EC73 soil” value ([5]; IU/EC73 soil) was 0%. The “activity STEME IU soil” value ([6]; IU soil) was 85%, the “activity STEME IU/EC73 soil” value ([6]; IU/EC73 soil) was 55% and the “activity MATCH 5 mm” value ([7]; sowing depth 5 mm) was 0%. The “activity MATCH 20 mm” value ([7]; sowing depth 20 mm) was 30%, the “activity AVEFA pH 7.4” value ([8]; soil pH 7.4) was 10% and the “activity AVEFA pH 8.4” value ([8]; soil pH 8.4) was 30%. For the same compound, the “activity LOLPE” value ([9]; irrigation from above) was 75%, the “activity LOLPE” value ([9]; irrigation from below) was 10% and the “activity MATCH” value [10] was 30%.
